Data on one compound can be found in paper doi:10.64898/2025.12.31.695415v1, “Correlated dynamics, reactive conformations and non-Arrhenius behaviour in the temperature-dependence of enzyme activity: triosephosphate isomerase” (biorxiv, 2025).

This assay addresses T1, meso-TIM (Saccharomyces cerevisiae, UniProt P00942).
T1 construct: gene TPI1; N-terminal His6 tag, pET28b, E. coli BL21(DE3); dimer; PDB 1NEY is the simulation model
T1 sequence (P00942 2-248): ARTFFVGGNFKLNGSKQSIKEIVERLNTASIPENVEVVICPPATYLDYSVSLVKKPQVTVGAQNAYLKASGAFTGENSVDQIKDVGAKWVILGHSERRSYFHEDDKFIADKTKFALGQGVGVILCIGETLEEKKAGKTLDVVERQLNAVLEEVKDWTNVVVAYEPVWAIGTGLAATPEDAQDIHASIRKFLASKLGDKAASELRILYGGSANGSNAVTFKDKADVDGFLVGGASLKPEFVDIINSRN
The assay is described as follows: stopped-flow, GAPD-coupled assay, […] nm. As to conditions: 50 mM HEPES pH 7.4, 150 mM NaCl, 10 mM MgCl2, 2.5 mM (NH4)2SO4; two temperatures. The format is biochemical.

Each structure is given as a SMILES string.

On to `O=C(CO)COP(=O)(O)O` [dihydroxyacetone phosphate], for which the Km entry is reported as “substrate binding kinetics were determined at two temperatures”.
